The target in one experiment is EGFR (Homo sapiens (Human), UniProt P00533). Description: ErbB enzyme assay (CisBio HTRF KinEASE-TK), Assay 3. It is filed as biochemical. Summed up:
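IC50 was taken where a 4-parameter logistic fit crossed 50 percent of control (DMSO 100, pre-quenched 0), read by ratiometric HTRF. Reactions ran 30 min at 22 °C with 1 mM ATP and 250 nM TK-substrate biotin in pH 7.4 HEPES buffer with MgCl2, Triton X-100 and 2% DMSO.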

Experiment [1] addresses ErbB2 insYVMA (HER2-YVMA, SEQ ID NO: 2) (Homo sapiens, UniProt P04626, INS775YVMA/P1170A). Description: biochemical. The note with it: ErbB2 insYVMA enzyme assay; read-out: Assay 1 IC50.
In another experiment the target is ErbB2 WT (Homo sapiens (Human), UniProt P04626). The experiment is described as follows: ErbB enzyme assay (CisBio HTRF KinEASE-TK), Assay 2. In kind it is biochemical. Summed up: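 Readout is HTRF KinEASE-TK, using Sa-XL665 and cryptate antibody for 1 h at 22 °C, as percent of control between DMSO-only (100) and pre-quenched (0) reactions. The kinase reaction runs 30 min at 22 °C with 1 mM ATP and 250 nM biotinylated TK substrate, in HEPES pH 7.4 with MgCl2 and 2% DMSO.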

The next experiment addresses EGFR wild type (EGFR WT) (Homo sapiens (Human), UniProt P00533). The experiment is described as follows: Cellular phosphorylation assay, EGF-stimulated EGFR phosphorylation in engineered NIH 3T3 cells, Phospho-EGFR DuoSet IC ELISA, Assay 5. In kind it is cell-based. On the procedure: NIH 3T3 cells were engineered to express EGFR wild type (EGFR WT; Assay 5, no footnote) with constructs obtained from GenScript and grown in DMEM supplemented with 10% fetal bovine serum and 15 μg/ml blasticidin. Cells were plated in 96-well plates at 20,000 cells/well and allowed to attach overnight at 37° C./5% CO2. Serially diluted compounds were added to the plates for 1 hour at 37° C./5% CO2. EGFR WT cells were stimulated with 100 ng/ml rEGF for an additional 10 minutes at 37° C./5% CO2. After compound incubation, medium was removed from the cells, which were then lysed in 100 μL/well lysis buffer according to the manufacturer's protocol (R&D Systems, DYC1095, Human Phospho-EGFR DuoSet IC ELISA). Same protocol was followed to determine the total levels of phospho-EGFR by measuring the optical density of each well using a VersaMax microplate reader. Curves were then generated and IC50 values calculated.
Background: ELISA stands for enzyme-linked immunosorbent assay.

Experiment [2] has as its target ErbB2 with Exon 20 YVMA insertion (HER2-YVMA) (Homo sapiens (Human), UniProt P04626, INS775YVMA). The experiment is described as follows: Cellular phosphorylation assay, constitutive ErbB2 phosphorylation (Y1196) in engineered NIH 3T3 cells, Assay 4. It is filed as cell-based. An outline of the steps:
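In-cell Western in NIH 3T3 cells carrying ErbB2 exon 20 YVMA insertion, with no ligand stimulation. One hour compound exposure at 37 °C before fixation and anti-pY1196 plus GAPDH staining with dual-wavelength fluorescence. IC50 derived after GAPDH normalization.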

The source of these data is patent US11834453B2, “Substituted pyrimido[5,4-d]pyrimidines as HER2 inhibitors” (Array BioPharma Inc., priority 2020, dated 2023).

Chain of ErbB2 insYVMA (HER2-YVMA, SEQ ID NO: 2) (P04626 with tags, fused parts or gaps INS775YVMA/P1170A limits assumed): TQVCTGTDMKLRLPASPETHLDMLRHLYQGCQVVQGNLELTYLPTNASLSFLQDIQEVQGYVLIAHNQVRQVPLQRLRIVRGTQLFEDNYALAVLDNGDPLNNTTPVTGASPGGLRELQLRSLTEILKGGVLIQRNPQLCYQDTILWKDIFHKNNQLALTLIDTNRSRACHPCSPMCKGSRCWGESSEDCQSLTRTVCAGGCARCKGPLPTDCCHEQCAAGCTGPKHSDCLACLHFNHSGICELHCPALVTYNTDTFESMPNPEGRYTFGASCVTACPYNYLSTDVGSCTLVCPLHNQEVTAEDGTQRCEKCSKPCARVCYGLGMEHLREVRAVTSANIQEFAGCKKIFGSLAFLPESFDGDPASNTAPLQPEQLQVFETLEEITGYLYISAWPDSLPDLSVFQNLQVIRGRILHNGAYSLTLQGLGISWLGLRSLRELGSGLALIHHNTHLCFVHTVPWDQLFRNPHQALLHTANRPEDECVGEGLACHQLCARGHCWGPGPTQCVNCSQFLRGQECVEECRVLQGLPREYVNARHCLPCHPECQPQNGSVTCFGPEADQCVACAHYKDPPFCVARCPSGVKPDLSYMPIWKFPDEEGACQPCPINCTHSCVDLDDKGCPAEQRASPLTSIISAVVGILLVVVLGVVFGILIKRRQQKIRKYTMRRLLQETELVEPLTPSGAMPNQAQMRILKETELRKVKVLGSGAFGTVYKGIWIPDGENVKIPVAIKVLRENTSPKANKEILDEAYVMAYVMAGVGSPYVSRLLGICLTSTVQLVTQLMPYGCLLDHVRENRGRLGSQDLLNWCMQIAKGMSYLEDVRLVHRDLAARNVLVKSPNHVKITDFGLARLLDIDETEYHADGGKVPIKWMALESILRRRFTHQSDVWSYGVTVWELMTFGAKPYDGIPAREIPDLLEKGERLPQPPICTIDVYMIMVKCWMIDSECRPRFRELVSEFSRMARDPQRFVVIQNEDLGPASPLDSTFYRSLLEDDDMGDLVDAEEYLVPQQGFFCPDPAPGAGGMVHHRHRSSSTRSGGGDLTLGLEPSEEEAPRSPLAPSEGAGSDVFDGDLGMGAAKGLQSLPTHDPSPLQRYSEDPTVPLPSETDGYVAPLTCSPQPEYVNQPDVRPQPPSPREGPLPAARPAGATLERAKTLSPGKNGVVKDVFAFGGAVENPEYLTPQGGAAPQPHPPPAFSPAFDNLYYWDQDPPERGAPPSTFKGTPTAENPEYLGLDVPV
Chain of EGFR wild type (EGFR WT) (P00533 25-1210): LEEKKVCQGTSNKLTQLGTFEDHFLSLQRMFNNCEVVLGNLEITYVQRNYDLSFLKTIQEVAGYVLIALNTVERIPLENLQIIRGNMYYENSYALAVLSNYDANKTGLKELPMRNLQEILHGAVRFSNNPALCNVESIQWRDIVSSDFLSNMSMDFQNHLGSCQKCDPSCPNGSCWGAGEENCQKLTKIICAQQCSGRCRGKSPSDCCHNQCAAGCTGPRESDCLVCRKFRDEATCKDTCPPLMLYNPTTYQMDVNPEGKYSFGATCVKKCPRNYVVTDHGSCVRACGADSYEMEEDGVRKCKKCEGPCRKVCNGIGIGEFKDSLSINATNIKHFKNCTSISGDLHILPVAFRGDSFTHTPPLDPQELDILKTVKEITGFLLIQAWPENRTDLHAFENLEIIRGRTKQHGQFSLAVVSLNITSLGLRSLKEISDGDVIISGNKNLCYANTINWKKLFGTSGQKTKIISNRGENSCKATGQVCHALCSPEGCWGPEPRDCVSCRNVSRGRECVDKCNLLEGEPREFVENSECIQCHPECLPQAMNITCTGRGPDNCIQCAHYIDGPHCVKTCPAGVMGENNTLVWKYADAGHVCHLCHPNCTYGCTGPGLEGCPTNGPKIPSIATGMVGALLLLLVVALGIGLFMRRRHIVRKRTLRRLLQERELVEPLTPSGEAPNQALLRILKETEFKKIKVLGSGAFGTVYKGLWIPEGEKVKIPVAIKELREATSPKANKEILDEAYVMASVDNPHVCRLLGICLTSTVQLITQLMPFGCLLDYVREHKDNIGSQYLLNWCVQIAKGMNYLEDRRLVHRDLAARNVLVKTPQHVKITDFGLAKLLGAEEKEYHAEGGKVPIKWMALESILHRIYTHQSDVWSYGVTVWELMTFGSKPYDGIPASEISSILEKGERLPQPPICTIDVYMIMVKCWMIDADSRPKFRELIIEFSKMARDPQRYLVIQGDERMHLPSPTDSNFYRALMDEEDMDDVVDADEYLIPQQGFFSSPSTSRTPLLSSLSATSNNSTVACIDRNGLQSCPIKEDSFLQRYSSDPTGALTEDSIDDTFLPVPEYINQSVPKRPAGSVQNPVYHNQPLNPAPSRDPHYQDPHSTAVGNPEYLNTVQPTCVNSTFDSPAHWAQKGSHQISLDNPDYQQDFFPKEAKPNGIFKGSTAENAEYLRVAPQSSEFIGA
Chain of EGFR (P00533 25-1210): as above
Chain of ErbB2 WT (P04626 23-1255): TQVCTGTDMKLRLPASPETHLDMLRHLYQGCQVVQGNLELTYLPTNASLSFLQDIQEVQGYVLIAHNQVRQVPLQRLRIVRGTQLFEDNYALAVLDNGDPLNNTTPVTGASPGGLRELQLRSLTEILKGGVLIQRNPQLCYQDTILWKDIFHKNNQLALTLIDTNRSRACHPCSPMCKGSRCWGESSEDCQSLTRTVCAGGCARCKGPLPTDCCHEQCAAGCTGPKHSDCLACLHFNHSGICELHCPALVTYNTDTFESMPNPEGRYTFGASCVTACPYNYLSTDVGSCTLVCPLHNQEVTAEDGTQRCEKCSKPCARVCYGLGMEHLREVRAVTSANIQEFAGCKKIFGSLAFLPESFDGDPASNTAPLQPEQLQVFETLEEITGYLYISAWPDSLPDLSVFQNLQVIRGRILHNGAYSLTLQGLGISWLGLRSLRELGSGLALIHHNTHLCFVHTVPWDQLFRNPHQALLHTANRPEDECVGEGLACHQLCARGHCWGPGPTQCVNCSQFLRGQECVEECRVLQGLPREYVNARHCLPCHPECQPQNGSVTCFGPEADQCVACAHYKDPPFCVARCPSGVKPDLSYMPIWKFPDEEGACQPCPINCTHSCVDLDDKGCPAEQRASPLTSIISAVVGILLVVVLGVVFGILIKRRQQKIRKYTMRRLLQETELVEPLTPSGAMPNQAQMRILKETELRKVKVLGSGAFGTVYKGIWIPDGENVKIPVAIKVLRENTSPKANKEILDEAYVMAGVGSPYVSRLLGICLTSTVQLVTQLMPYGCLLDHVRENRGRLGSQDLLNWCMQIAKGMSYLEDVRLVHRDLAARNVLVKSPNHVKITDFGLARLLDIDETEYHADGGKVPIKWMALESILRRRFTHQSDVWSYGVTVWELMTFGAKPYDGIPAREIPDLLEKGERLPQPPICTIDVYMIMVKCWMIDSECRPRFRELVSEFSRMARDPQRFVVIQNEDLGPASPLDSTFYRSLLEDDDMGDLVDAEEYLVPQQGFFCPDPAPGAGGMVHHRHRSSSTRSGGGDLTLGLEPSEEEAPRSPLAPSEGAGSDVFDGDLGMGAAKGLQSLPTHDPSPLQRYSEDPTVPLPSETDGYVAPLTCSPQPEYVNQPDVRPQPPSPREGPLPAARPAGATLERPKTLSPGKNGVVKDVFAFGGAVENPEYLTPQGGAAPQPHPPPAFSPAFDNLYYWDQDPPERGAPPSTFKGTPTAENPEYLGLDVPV

Usually IC50 stands for the concentration that gives 50% inhibition. With `Cc1cc(Nc2ncnc3cnc(O[C@@H]4CN(C)C[C@@H]4F)nc23)ccc1Oc1ccc2c(c1)ncn2C` [Example 87, 6-(((3R,4S)-4-fluoro-1-methylpyrrolidin-3-yl)oxy)-N-(3-methyl-4-((1-methyl-1H-benzo[d]imidazol-5-yl)oxy)phenyl)pyrimido[5,4-d]pyrimidin-4-amine], the IC50 was at least 10000 nM against EGFR; 69.5 nM in experiment [1]; 346 nM at ErbB2 WT; at least 5000 nM on EGFR wild type (EGFR WT); 95.1 nM in experiment [2].

Regarding `CC(=O)O[C@H]1CN(c2ncc3ncnc(Nc4ccc(Oc5ccc6c(c5)ncn6C)c(C)c4)c3n2)C[C@H]1F` [Example 90, (3S,4R)-4-fluoro-1-(8-((3-methyl-4-((1-methyl-1H-benzo[d]imidazol-5-yl)oxy)phenyl)amino)pyrimido[5,4-d]pyrimidin-2-yl) pyrrolidin-3-yl acetate], the IC50 was at least 10000 nM against EGFR; 41 nM in experiment [1]; 93.1 nM at ErbB2 WT; at least 5000 nM against EGFR wild type (EGFR WT); 29 nM in experiment [2].

As for `CON1CCN(c2ncc3ncnc(Nc4ccc(Oc5ccn6ncnc6c5)c(C)c4F)c3n2)CC1` [Example 95, N-(4-([1,2,4]triazolo[1,5-a]pyridin-7-yloxy)-2-fluoro-3-methylphenyl)-6-(4-methoxypiperazin-1-yl)pyrimido[5,4-d]pyrimidin-4-amine], the IC50 is at least 10000 nM against EGFR; 25.2 nM in experiment [1]; 95.1 nM against ErbB2 WT; at least 5000 nM at EGFR wild type (EGFR WT); 179 nM in experiment [2].

Turning to `CON1CCN(c2ncc3ncnc(Nc4ccc(Oc5ccn6ncnc6c5)c(C)c4)c3n2)CC1` [Example 96, N-(4-([1,2,4]triazolo[1,5-a]pyridin-7-yloxy)-3-methylphenyl)-6-(4-methoxypiperazin-1-yl)pyrimido[5,4-d]pyrimidin-4-amine], the IC50 against EGFR was 8890 nM; in experiment [1], 23.1 nM; against ErbB2 WT, 81.2 nM; on EGFR wild type (EGFR WT), at least 5000 nM; in experiment [2], 96.1 nM.

Turning to `CON1CCN(c2ncc3ncnc(Nc4ccc(Oc5ccc6c(c5)ncn6C)c(C)c4Cl)c3n2)CC1` [Example 98, N-(2-chloro-3-methyl-4-((1-methyl-1H-benzo[d]imidazol-5-yl)oxy)phenyl)-6-(4-methoxypiperazin-1-yl)pyrimido[5,4-d]pyrimidin-4-amine], the IC50 was at least 10000 nM against EGFR; 232 nM in experiment [1]; 1950 nM against ErbB2 WT; at least 5000 nM on EGFR wild type (EGFR WT); 266 nM in experiment [2].

On to `Cc1cc(Nc2ncnc3cnc(N(C)[C@H]4CN(C)C[C@H]4F)nc23)ccc1Oc1ccc2c(c1)ncn2C` [Example 99, N2-((3S,4R)-4-fluoro-1-methylpyrrolidin-3-yl)-N2-methyl-N8-(3-methyl-4-((1-methyl-1H-benzo[d]imidazol-5-yl)oxy)phenyl)pyrimido[5,4-d]pyrimidine-2,8-diamine], for which the IC50 on EGFR was 6470 nM; in experiment [1], 17.1 nM; at ErbB2 WT, 18 nM; against EGFR wild type (EGFR WT) it was at least 5000 nM; in experiment [2] it was 44.5 nM.

For `Cc1cc(Nc2ncnc3cnc(N(C)CCC(C)(C)O)nc23)ccc1Oc1ccc2c(c1)ncn2C` [Example 102, 2-methyl-4-(methyl(8-((3-methyl-4-((1-methyl-1H-benzo[d]imidazol-5-yl)oxy)phenyl)amino)pyrimido[5,4-d]pyrimidin-2-yl)amino)butan-2-ol], the IC50 was 2730 nM against EGFR; 23.8 nM in experiment [1]; 20.7 nM against ErbB2 WT; at least 5000 nM on EGFR wild type (EGFR WT); 9.4 nM in experiment [2].

Consider `Cc1cc(Nc2ncnc3cnc(NCc4cnn(C)c4C)nc23)ccc1Oc1ccc2c(c1)ncn2C` [Example 103, N2-((1,5-dimethyl-1H-pyrazol-4-yl)methyl)-N8-(3-methyl-4-((1-methyl-1H-benzo[d]imidazol-5-yl)oxy)phenyl)pyrimido[5,4-d]pyrimidine-2,8-diamine], for which the IC50 was at least 10000 nM on EGFR; 20.3 nM in experiment [1]; 56.6 nM against ErbB2 WT; at least 5000 nM at EGFR wild type (EGFR WT); 61.5 nM in experiment [2].

In the case of `Clc1cc(Nc2ncnc3cnc(N4CCC4)nc23)ccc1Oc1ccn2ncnc2c1` [Example 112, N-(4-([1,2,4]triazolo[1,5-a]pyridin-7-yloxy)-3-chlorophenyl)-6-(azetidin-1-yl)pyrimido[5,4-d]pyrimidin-4-amine], the IC50 is at least 10000 nM against EGFR; 18.7 nM in experiment [1]; 44.1 nM against ErbB2 WT; at least 5000 nM against EGFR wild type (EGFR WT); 190 nM in experiment [2].

Turning to `CN(c1ncc2ncnc(Nc3ccc(Oc4ccc5c(c4)ncn5C)c(Cl)c3)c2n1)[C@H]1CCOC1` [Example 117, (S)—N8-(3-chloro-4-((1-methyl-1H-benzo[d]imidazol-5-yl)oxy)phenyl)-N2-methyl-N2-(tetrahydrofuran-3-yl)pyrimido[5,4-d]pyrimidine-2,8-diamine], the IC50 on EGFR is at least 10000 nM; in experiment [1] it was 46.7 nM; against ErbB2 WT, 93.3 nM; against EGFR wild type (EGFR WT), at least 5000 nM; in experiment [2], 8.3 nM.

Consider `Cc1cc(Nc2ncnc3cnc(N4C[C@H]5C[C@@H]4CO5)nc23)ccc1Oc1ccn2ncnc2c1` [Example 121, N-(4-([1,2,4]triazolo[1,5-a]pyridin-7-yloxy)-3-methylphenyl)-6-((1R,4R)-2-oxa-5-azabicyclo[2.2.1]heptan-5-yl)pyrimido[5,4-d]pyrimidin-4-amine], for which the 50% inhibitory concentration (IC50) against EGFR was at least 10000 nM; in experiment [1] it was 32.4 nM; against ErbB2 WT, 121 nM; against EGFR wild type (EGFR WT), at least 5000 nM; in experiment [2], 667 nM.

With `CN(c1ncc2ncnc(Nc3ccc(Oc4ccn5ncnc5c4)c(Cl)c3)c2n1)[C@H]1CCOC1` [Example 133, (S)—N8-(4-([1,2,4]triazolo[1,5-a]pyridin-7-yloxy)-3-chlorophenyl)-N2-methyl-N2-(tetrahydrofuran-3-yl)pyrimido[5,4-d]pyrimidine-2,8-diamine], the IC50 against EGFR was 5720 nM; in experiment [1], 10.8 nM; against ErbB2 WT, 26.2 nM; at EGFR wild type (EGFR WT), at least 5000 nM; in experiment [2] it was 55.4 nM.

With `Cc1cc(Nc2ncnc3cnc(N4CC5CC(C4)O5)nc23)ccc1Oc1ccn2ncnc2c1` [Example 135, N-(4-([1,2,4]triazolo[1,5-a]pyridin-7-yloxy)-3-methylphenyl)-6-(6-oxa-3-azabicyclo[3.1.1]heptan-3-yl)pyrimido[5,4-d]pyrimidin-4-amine], the IC50 against EGFR is at least 10000 nM; in experiment [1] it was 26.2 nM; at ErbB2 WT, 45.7 nM; against EGFR wild type (EGFR WT), at least 5000 nM; in experiment [2] it was 514 nM.

Consider `Cc1cc(Nc2ncnc3cnc(N4CCN(C)[C@H](C)C4)nc23)ccc1Oc1ccn2ncnc2c1` [Example 136, (R)—N-(4-([1,2,4]triazolo[1,5-a]pyridin-7-yloxy)-3-methylphenyl)-6-(3,4-dimethylpiperazin-1-yl)pyrimido[5,4-d]pyrimidin-4-amine], for which the IC50 on EGFR was at least 10000 nM; in experiment [1], 55.3 nM; at ErbB2 WT, 59.3 nM; against EGFR wild type (EGFR WT), at least 5000 nM; in experiment [2], 315 nM.
